Measurements reported in PubChem BioAssay AID1963870 (Molecular Pharmacology Branch, DTP, NCI, 2024).
Values joined by “and” are separate entries in the source; they are usually repeats but may differ in a detail not shown here. Identical values can stand only once.

System: 292921-168-R-J2-PDC KRAS tumor spheroid viability
Assay: Anticancer human tumor 292921-168-R-J2-PDC patient-derived pancreatic carcinoma cell line growth inhibition [KRAS2]
Conditions: spheroids with HUVEC and MSC; for viability, T/C: stronger effect = lower value
Source text: Multicellular complex tumor spheroid response to RAS pathway inhibitors in combination with a targeted agents in patient-derived cell lines with oncogenic KRAS variants from multiple cancer types
A high-throughput screen of multi-cell type tumor spheroids was designed to identify active combinations of targeted small molecules and KRAS pathway inhibitors. Complex spheroids include a stromal component modeled by human endothelial cells (HUVEC) and fibroblasts modeled by human mesenchymal stem cells (MSCs). The concentration ranges selected for each drug and investigational agent were based upon clinically achievable concentrations if the clinical Cmax of the agent was known.
Compounds. The drugs and investigational agents: BI-3406 (NSC825286), BAY-293 (NSC824723), batoprotafib (TNO155; NSC825523), sotorasib (AMG 510; NSC818433), MRTX1257 (NSC819558), elimusertib (BAY 1895344; NSC800525), molibresib (GSK525762; NSC774829), temuterkib (LY3214996; NSC803410), venetoclax (NSC766270), alisertib (NSC759677), olaparib (NSC753686), talazoparib (NSC767125), erdafitinib (NSC781556), ipatasertib (NSC767898), cabozantinib (NSC761068), nintedanib (NSC756659), abemaciclib (NSC768073), docetaxel (NSC628503), trametinib (NSC758246), and sapanisertib (NSC764658) were obtained from the National Cancer Institute (NCI) Developmental Therapeutics Program Chemical Repository. The FDA-approved anticancer drug set is available from the Developmental Therapeutics Program. […] The stock solutions were prepared in dimethyl sulfoxide (DMSO, Sigma-Aldrich, St. Louis, MO, cat. D2650) at 800-fold the tested concentration and stored at -70 degrees C prior to their use. All drugs and investigational agents were tested over a range starting from a high concentration at or near the clinical Cmax and decreasing in half-log increments. If the clinical Cmax for an agent had not been determined, the highest concentration tested was 10 microM.
Cell Culture. All cells were maintained in an incubator at 37 degrees C and 5% CO2 with 95% humidity. The PDC lines were cultured according to standard operating procedures established by the NCI PDMR (https://pdmr.cancer.gov/sops/default.htm). Briefly, all PDCs were thawed and cultured in Matrigel-coated flasks prepared with a working solution of 1X Ham's F-12 nutrient mix, without supplementation (Invitrogen, Waltham, MA, cat. 11765054), 100 U/mL penicillin-streptomycin (Invitrogen, cat. 15140122), and 2.5% Matrigel (Corning Inc., Corning, NY, cat. 354248) for the first three passages. All PDCs were cultured in complete DMEM/F-12 media containing advanced DMEM/F-12 (Invitrogen, cat. 12634028), 4.9% defined fetal bovine serum, heat inactivated (HyClone Laboratories Inc., Logan, UT, cat. SH30070.03HI), 389 ng/mL hydrocortisone (Sigma-Aldrich, cat. H4001), 9.7 ng/mL human EGF recombinant protein (Invitrogen, cat. PHG0313), 23.4 microg/mL adenine (Sigma-Aldrich, cat. A2786), 97.3 U/mL penicillin-streptomycin (Invitrogen, cat. 15140122), 1.9 mM L-glutamine (Invitrogen, cat. 25030081), and 9.7 microM Y-27632 dihydrochloride (Tocris Bioscience, Bristol, United Kingdom, cat. 1254). The PDCs were cultured in complete DMEM/F12 media without 9.7 microM Y-27632 dihydrochloride for at least two passages prior to the screen. The established cell line HOP-62 was cultured in RPMI 1640 medium, HEPES (Invitrogen, cat. 22400105) with 10% defined fetal bovine serum (HyClone Laboratories Inc., cat. SH30070.03) and 2 mM L-glutamine (Invitrogen, cat. 25030081). The pooled donor HUVEC were cultured in endothelial cell growth medium 2 (PromoCell, Heidelberg, Germany, cat. C-22011) and the hMSC were cultured in mesenchymal stem cell growth medium 2 (PromoCell, cat. C-28009). For all experiments, HUVEC and hMSC were used at passages </=5, while the malignant cell lines were used at passages </=15. […]

[1] = compound alone, run of 08/26/2021
[2] = compound alone, run of 09/02/2021
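Note: drug exposure lasted seven days after spheroids formed for three days.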
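Throughout, for viability, T/C: percent of DMSO vehicle control viability which is 100%.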

SMILES	IC50 [1]	IC50 [2]	viability, T/C (compound 0.0001 µM)	viability, T/C (compound 0.000316 µM)	viability, T/C (compound 0.001 µM)	viability, T/C (compound 0.00316 µM)	viability, T/C (compound 0.01 µM)	viability, T/C (compound 0.0316 µM)	IC50 (curve of compound)	viability, T/C (compound 0.1 µM)	viability, T/C (compound 0.316 µM)	viability, T/C (compound 1 µM)	viability, T/C (compound 3.16 µM)	viability, T/C (compound 10 µM)
C=CC(=O)N1CCN(c2nc(=O)n(-c3c(C)ccnc3C(C)C)c3nc(-c4c(O)cccc4F)c(F)cc23)C(C)C1 (stereo unspecified)	5.55 µM [middle of 5 runs]	5.47 µM [middle of 6 runs]												
CC(=O)Nc1cccc(-n2c(=O)n(C3CC3)c(=O)c3c(Nc4ccc(I)cc4F)n(C)c(=O)c(C)c32)c1			73.6% [middle of 5 runs]	51.5% [middle of 5 runs]	28.9% [middle of 5 runs]	17.8% [middle of 5 runs]	12.7% [middle of 5 runs]	8.87% [middle of 4 runs]	0.328 nM [middle of 5 runs]					
CC(=O)OC12COC1CC(O)C1(C)C(=O)C(O)C3=C(C)C(OC(=O)C(O)C(NC(=O)OC(C)(C)C)c4ccccc4)CC(O)(C(OC(=O)c4ccccc4)C21)C3(C)C (stereo unspecified)							14.3% [middle of 5 runs]	14.3% [middle of 5 runs]	< 10 nM	12.4% [middle of 5 runs]	12.8% [middle of 5 runs]	13.8% [middle of 5 runs]	17.6% [middle of 5 runs]	
CC(C)NCC(C(=O)N1CCN(c2ncnc3c2C(C)CC3O)CC1)c1ccc(Cl)cc1 (stereo unspecified)								93.8% [middle of 5 runs]	> 10000 nM and 9740 nM	88.5% [middle of 5 runs]	83.5% [middle of 5 runs]	83.1% [middle of 5 runs]	76.5% [middle of 5 runs]	51.1% [middle of 5 runs]
CC(C)n1nc(-c2ccc3oc(N)nc3c2)c2c(N)ncnc21					61.9% [middle of 5 runs]	48.2% [middle of 5 runs]	35.1% [middle of 5 runs]	27.3% [middle of 5 runs]	2.46 nM [middle of 5 runs]	22.6% [middle of 5 runs]				
CC1(C)CCC(CN2CCN(c3ccc(C(=O)NS(=O)(=O)c4ccc(NCC5CCOCC5)c([N+](=O)[O-])c4)c(Oc4cnc5[nH]ccc5c4)c3)CC2)=C(c2ccc(Cl)cc2)C1								102% [middle of 5 runs]	2.17 µM [middle of 4 runs]	98.2% [middle of 5 runs]	95.9% [middle of 5 runs]	100% [middle of 5 runs]	27.2% [middle of 5 runs]	10.3% [middle of 5 runs]
CC1COCCN1c1cc(-c2ccnn2C)c2ccnc(-c3ccn[nH]3)c2n1 (stereo unspecified)							48% [middle of 5 runs]	23.6% [middle of 5 runs]	< 10 nM	16.1% [middle of 5 runs]	14.2% [middle of 5 runs]	14.4% [middle of 5 runs]	16% [middle of 5 runs]	
CC1OCC2(CCN(c3cnc(Sc4ccnc(N)c4Cl)c(N)n3)CC2)C1N (stereo unspecified)	696 nM [middle of 5 runs]	524 nM [middle of 5 runs]						86.4% [middle of 4 runs]	619 nM [middle of 5 runs]					
CCN1CCN(Cc2ccc(Nc3ncc(F)c(-c4cc(F)c5nc(C)n(C(C)C)c5c4)n3)nc2)CC1						88.5% and 85.8% and 83.2%	72.1% and 73% and 63.1%	57.3% and 49.2% and 53%	46.4 nM and 47.4 nM and 32.1 nM	36.8% and 43.1% and 36.2%	28.3% and 34.9% and 27.1%	17.8% and 23.3% and 20.6%		
CCNC(=O)CC1N=C(c2ccc(Cl)cc2)c2cc(OC)ccc2-n2c(C)nnc21 (stereo unspecified)								97.6% and 105% (2×)	> 10000 nM and 2930 nM and 4760 nM	101% and 90.5% and 99.3%	68.9% and 65.5% and 77.4%	61.3% and 61.7% and 65.3%	55.7% and 53.3% and 49.1%	47.1% and 38.7% and 48.1%
CN(C)C/C=C/C(=O)Nc1cc2c(Nc3ccc(F)c(Cl)c3)ncnc2cc1O[C@H]1CCOC1				101% [middle of 5 runs]	101% [middle of 5 runs]	85.6% [middle of 5 runs]	82.7% [middle of 5 runs]	75.9% [middle of 5 runs]	> 100 nM	70.9% [middle of 5 runs]				
CNCc1ccccc1-c1csc(C(C)Nc2nc(C)nc3cc(OC)c(OC)cc23)c1 (stereo unspecified)	1.28 µM [middle of 5 runs]	1.34 µM [middle of 5 runs]									88.7% [middle of 16 runs]			0.15% [middle of 14 runs]
COC(=O)c1ccc2c(C(=Nc3ccc(N(C)C(=O)CN4CCN(C)CC4)cc3)c3ccccc3)c(O)[nH]c2c1													6.78% [middle of 5 runs]	0.34% [middle of 5 runs]
COc1cc(Nc2ncc3c(n2)-c2ccc(Cl)cc2C(c2c(F)cccc2OC)=NC3)ccc1C(=O)O								30.3% [middle of 5 runs]	< 31.6 nM	28% [middle of 5 runs]	30.6% [middle of 5 runs]	28.6% [middle of 5 runs]	23.7% [middle of 5 runs]	17.8% [middle of 5 runs]
COc1cc(OC)cc(N(CCNC(C)C)c2ccc3ncc(-c4cnn(C)c4)nc3c2)c1								72.9% [middle of 5 runs]	2.48 µM [middle of 5 runs]	77.1% [middle of 5 runs]	77.7% [middle of 5 runs]	69.4% [middle of 5 runs]	45.9% [middle of 5 runs]	0.9% [middle of 5 runs]
COc1cc2nccc(Oc3ccc(NC(=O)C4(C(=O)Nc5ccc(F)cc5)CC4)cc3)c2cc1OC								104% (3×) and 112% and 103%	2.1 µM [middle of 5 runs]	99.3% [middle of 5 runs]	96.6% [middle of 5 runs]		33.9% [middle of 5 runs]	19.6% [middle of 5 runs]
Cn1nccc1Nc1nccc(-c2cc3c(s2)C(C)(C)N(CCN2CCOCC2)C3=O)n1								80.7% [middle of 5 runs]	86 nM [middle of 5 runs]	45.7% [middle of 5 runs]	21.1% [middle of 5 runs]	13.4% [middle of 4 runs]	11.2% [middle of 4 runs]	11.7% [middle of 5 runs]
Cn1ncnc1[C@H]1c2n[nH]c(=O)c3cc(F)cc(c23)N[C@@H]1c1ccc(F)cc1				99.3% [middle of 5 runs]	99.4% [middle of 5 runs]	93.5% [middle of 5 runs]	89.9% [middle of 5 runs]	84.1% [middle of 5 runs]	> 100 nM	74.5% [middle of 5 runs]				
O=C(c1cc(Cc2n[nH]c(=O)c3ccccc23)ccc1F)N1CCN(C(=O)C2CC2)CC1								96.3% [middle of 5 runs]	8.55 µM [middle of 5 runs]					46% [middle of 5 runs]
